Publication PMC3597565, “Display of Multimeric Antimicrobial Peptides on the Escherichia coli Cell Surface and Its Application as Whole-Cell Antibiotics” (PLoS ONE, 2013)
≈ marks a conversion by molar mass, not a printed value. One block for each compound: values may come before it. Peptide text beside a SMILES is read from it.

Legend:
Assay type in all cases: cell-based
[1] = tested on: Salmonella enteritidis (ATCC 13076); conditions: ATCC 13076, 3 h; for MIC: pH 7.4
Protocol: (§1) The antimicrobial activity of each peptide was determined against eight representative microorganisms, including Gram-positive and Gram-negative bacteria and fungi, using the broth micro dilution assay as described by Park et al. with a slight modification. Briefly, mid-logarithmic phase cells were diluted to 1×10^5 cfu/ml in 10 mM sodium phosphate buffer (NAPB), pH 7.4. Each well of 96-well propylene micro titer plates (Costar, Cambridge, MA, USA) was filled with 90 µl of the diluted cell suspension and 10 µl of serially diluted peptide samples. After incubation for 3 h, fresh medium (trypticase soy broth for bacteria and Saboraud' medium for fungi) was added to the mixture and incubated at 37°C (bacteria) or 30°C (fungi) for an additional 12 h. Inhibition of growth was determined by measuring the absorbance at 620 nm with a Model 550 Microplate Reader (Bio-Rad, Hercules, CA, USA). […] The MIC values were calculated as an average of two independent experiments performed in triplicate.
(§2) ^a To determine the effect of protease digestion on the antimicrobial activity of Buf IIIb-L, synthetic Buf IIIb-L was first incubated with pepsin, trypsin, or chymotrypsin. After incubation at 37 °C for 30 min, the antimicrobial activity of the digested peptide was determined against eight representative microorganisms, including Gram-positive and Gram-negative bacteria and fungi, as described in Materials and Methods.

[2] = tested on: Pseudomonas putida (ATCC 17426); conditions: ATCC 17426, 3 h; for MIC: pH 7.4
Protocol: as §1, §2

[3] = tested on: Streptococcus mutans (ATCC 25175); conditions: ATCC 25175, 3 h; for MIC: pH 7.4
Protocol: as §1, §2

[4] = tested on: Bacillus subtilis (ATCC 62037); conditions: ATCC 62037, 3 h; for MIC: pH 7.4
Protocol: as §1, §2

[5] = tested on: Staphylococcus aureus (ATCC 15752); conditions: ATCC 15752, 3 h; for MIC: pH 7.4
Protocol: as §1, §2

[6] = tested on: Saccharomyces cerevisiae (ATCC 44774); conditions: ATCC 44774, 3 h; for MIC: pH 7.4
Protocol: as §1, §2

[7] = tested on: Candida albicans (ATCC 10231); conditions: ATCC 10231, 3 h; for MIC: pH 7.4
Protocol: as §1, §2

[8] = tested on: Escherichia coli (ATCC 27325); conditions: ATCC 27325, 3 h; for MIC: pH 7.4
Protocol: as §1, §2

[9] = tested on: eight representative microorganisms, including Gram-positive and Gram-negative bacteria and fungi; conditions: 3 h
Protocol: as §1

[10] = tested on: Listeria monocytogenes (ATCC 15313); conditions: ATCC 15313, 3 h
Protocol: as §1, with “After incubation for 3 h, fresh medium (trypticase soy broth for bacteria and Saboraud' medium for fungi) was added to the mixture and incubated at 37°C (bacteria) or 30°C (fungi) for an additional 12 h.” left out
Antimicrobial activities of the pepsin-digested peptide mixtures obtained from E. coli cells with surface-expressed LO-Bn fusion proteins were tested against two oral infectious pathogens, Salmonella enteritidis (ATCC 13076) and Listeria monocytogenes (ATCC 15313) as described above except using 10 µl of the 20-fold diluted peptide mixtures obtained from 1×10^11 E. coli cells with surface-expressed LO-Bn fusion proteins instead of synthetic peptide. Growth of cells was determined by measuring absorbance at 620 nm with a Model 550 Microplate Reader (Bio-Rad). […]

Compound: CC[C@H](C)[C@H](NC(=O)[C@@H]1CCCN1C(=O)[C@H](Cc1c[nH]c2ccccc12)NC(=O)[C@H](CCC(N)=O)NC(=O)[C@H](CCCNC(=N)N)NC(=O)[C@@H](NC(=O)[C@@H](NC(=O)[C@@H](N)CCCNC(=N)N)C(C)C)C(C)C)C(=O)NCC(=O)N[C@@H](CCCNC(=N)N)C(=O)N[C@H](C(=O)N[C@H](C(=O)N[C@@H](CCCNC(=N)N)C(=O)N[C@@H](CCCNC(=N)N)C(=O)N[C@H](C(=O)N[C@H](C(=O)N[C@@H](CCCNC(=N)N)C(=O)N[C@@H](CCCNC(=N)N)C(=O)N[C@H](C(=O)N[C@H](C(=O)N[C@@H](CCCNC(=N)N)C(=O)N[C@@H](Cc1ccccc1)C(=O)O)C(C)C)C(C)C)C(C)C)C(C)C)C(C)C)C(C)C [Buf IIIb-F] (H-RVVRQWPIGRVVRRVVRRVVRF-OH)
MIC [1]: 2 µg/mL (≈ 0.717 µM) | MIC [2]: 4 µg/mL (≈ 1.43 µM) | MIC [3]: 2 µg/mL (≈ 0.717 µM) | MIC [4]: 2 µg/mL (≈ 0.717 µM) | MIC [5]: 2 µg/mL (≈ 0.717 µM) | MIC [6]: 0.5 µg/mL (≈ 0.179 µM) | MIC [7]: 0.5 µg/mL (≈ 0.179 µM) | MIC [8]: 4 µg/mL (≈ 1.43 µM)

Compound: CC[C@H](C)[C@H](NC(=O)[C@@H]1CCCN1C(=O)[C@H](Cc1c[nH]c2ccccc12)NC(=O)[C@H](CCC(N)=O)NC(=O)[C@H](CCCNC(=N)N)NC(=O)[C@@H](NC(=O)[C@@H](NC(=O)[C@@H](N)CCCNC(=N)N)C(C)C)C(C)C)C(=O)NCC(=O)N[C@@H](CCCNC(=N)N)C(=O)N[C@H](C(=O)N[C@H](C(=O)N[C@@H](CCCNC(=N)N)C(=O)N[C@@H](CCCNC(=N)N)C(=O)N[C@H](C(=O)N[C@H](C(=O)N[C@@H](CCCNC(=N)N)C(=O)N[C@@H](CCCNC(=N)N)C(=O)N[C@H](C(=O)N[C@H](C(=O)N[C@@H](CCCNC(=N)N)C(=O)N[C@@H](Cc1ccc(O)cc1)C(=O)O)C(C)C)C(C)C)C(C)C)C(C)C)C(C)C)C(C)C [Buf IIIb-Y] (H-RVVRQWPIGRVVRRVVRRVVRY-OH)
MIC [1]: 2 µg/mL (≈ 0.713 µM) | MIC [2]: 2 µg/mL (≈ 0.713 µM) | MIC [3]: 2 µg/mL (≈ 0.713 µM) | MIC [4]: 2 µg/mL (≈ 0.713 µM) | MIC [5]: 2 µg/mL (≈ 0.713 µM) | MIC [6]: 1 µg/mL (≈ 0.356 µM) | MIC [7]: 4 µg/mL (≈ 1.43 µM) | MIC [8]: 4 µg/mL (≈ 1.43 µM)

Compound: CC[C@H](C)[C@H](NC(=O)[C@@H]1CCCN1C(=O)[C@H](Cc1c[nH]c2ccccc12)NC(=O)[C@H](CCC(N)=O)NC(=O)[C@H](CCCNC(=N)N)NC(=O)[C@@H](NC(=O)[C@@H](NC(=O)[C@@H](N)CCCNC(=N)N)C(C)C)C(C)C)C(=O)NCC(=O)N[C@@H](CCCNC(=N)N)C(=O)N[C@H](C(=O)N[C@H](C(=O)N[C@@H](CCCNC(=N)N)C(=O)N[C@@H](CCCNC(=N)N)C(=O)N[C@H](C(=O)N[C@H](C(=O)N[C@@H](CCCNC(=N)N)C(=O)N[C@@H](CCCNC(=N)N)C(=O)N[C@H](C(=O)N[C@H](C(=O)N[C@@H](CCCNC(=N)N)C(=O)N[C@@H](CC(C)C)C(=O)O)C(C)C)C(C)C)C(C)C)C(C)C)C(C)C)C(C)C [Buf IIIb-L] (H-RVVRQWPIGRVVRRVVRRVVRL-OH)
MIC of Buf IIIb-L digested with Chymotrypsin [1]: >256 µg/mL | MIC of Buf IIIb-L digested with Pepsin [1]: 4 µg/mL | MIC of Buf IIIb-L digested with Trypsin [1]: >256 µg/mL | MIC [1]: 4 µg/mL (≈ 1.45 µM) | MIC of Buf IIIb-L digested with Chymotrypsin [2]: >256 µg/mL | MIC of Buf IIIb-L digested with Pepsin [2]: 4 µg/mL | MIC of Buf IIIb-L digested with Trypsin [2]: >256 µg/mL | MIC [2]: 4 µg/mL (≈ 1.45 µM) | MIC of Buf IIIb-L digested with Chymotrypsin [3]: >256 µg/mL | MIC of Buf IIIb-L digested with Pepsin [3]: 2 µg/mL | MIC of Buf IIIb-L digested with Trypsin [3]: >256 µg/mL | MIC [3]: 2 µg/mL (≈ 0.726 µM) | MIC of Buf IIIb-L digested with Chymotrypsin [4]: >256 µg/mL | MIC of Buf IIIb-L digested with Pepsin [4]: 2 µg/mL | MIC of Buf IIIb-L digested with Trypsin [4]: >256 µg/mL | MIC [4]: 2 µg/mL (≈ 0.726 µM) | MIC of Buf IIIb-L digested with Chymotrypsin [5]: >256 µg/mL | MIC of Buf IIIb-L digested with Pepsin [5]: 2 µg/mL | MIC of Buf IIIb-L digested with Trypsin [5]: >256 µg/mL | MIC [5]: 2 µg/mL (≈ 0.726 µM) | MIC of Buf IIIb-L digested with Chymotrypsin [6]: >256 µg/mL | MIC of Buf IIIb-L digested with Pepsin [6]: 2 µg/mL | MIC of Buf IIIb-L digested with Trypsin [6]: >256 µg/mL | MIC [6]: 2 µg/mL (≈ 0.726 µM) | MIC of Buf IIIb-L digested with Chymotrypsin [7]: >256 µg/mL | MIC of Buf IIIb-L digested with Pepsin [7]: 2 µg/mL | MIC of Buf IIIb-L digested with Trypsin [7]: >256 µg/mL | MIC [7]: 2 µg/mL (≈ 0.726 µM) | MIC of Buf IIIb-L digested with Chymotrypsin [8]: >256 µg/mL | MIC of Buf IIIb-L digested with Pepsin [8]: 2 µg/mL | MIC of Buf IIIb-L digested with Trypsin [8]: >256 µg/mL | MIC [8]: 2 µg/mL (≈ 0.726 µM) | MIC [10]: 2 µg/mL (≈ 0.726 µM)

More lines, now with the values ahead:

MIC [1]: 2 µg/mL (≈ 0.757 µM) | MIC [2]: 1 µg/mL (≈ 0.378 µM) | MIC [3]: 2 µg/mL (≈ 0.757 µM) | MIC [4]: 2 µg/mL (≈ 0.757 µM) | MIC [5]: 2 µg/mL (≈ 0.757 µM) | MIC [6]: 0.5 µg/mL (≈ 0.189 µM) | MIC [7]: 1 µg/mL (≈ 0.378 µM) | MIC [8]: 1 µg/mL (≈ 0.378 µM) | MIC, range over the microorganisms of Table 2 [9]: 0.5 to 2 µg/mL
Compound: CC[C@H](C)[C@H](NC(=O)[C@@H]1CCCN1C(=O)[C@H](Cc1c[nH]c2ccccc12)NC(=O)[C@H](CCC(N)=O)NC(=O)[C@H](CCCNC(=N)N)NC(=O)[C@@H](NC(=O)[C@@H](NC(=O)[C@@H](N)CCCNC(=N)N)C(C)C)C(C)C)C(=O)NCC(=O)N[C@@H](CCCNC(=N)N)C(=O)N[C@H](C(=O)N[C@H](C(=O)N[C@@H](CCCNC(=N)N)C(=O)N[C@@H](CCCNC(=N)N)C(=O)N[C@H](C(=O)N[C@H](C(=O)N[C@@H](CCCNC(=N)N)C(=O)N[C@@H](CCCNC(=N)N)C(=O)N[C@H](C(=O)N[C@H](C(=O)N[C@@H](CCCNC(=N)N)C(=O)O)C(C)C)C(C)C)C(C)C)C(C)C)C(C)C)C(C)C [Buf IIIb] (H-RVVRQWPIGRVVRRVVRRVVR-OH)

MIC [1]: 2 µg/mL (≈ 0.781 µM) | MIC [2]: 2 µg/mL (≈ 0.781 µM) | MIC [3]: 2 µg/mL (≈ 0.781 µM) | MIC [4]: 1 µg/mL (≈ 0.391 µM) | MIC [5]: 2 µg/mL (≈ 0.781 µM) | MIC [6]: 2 µg/mL (≈ 0.781 µM) | MIC [7]: 2 µg/mL (≈ 0.781 µM) | MIC [8]: 1 µg/mL (≈ 0.391 µM)
Compound: CC(C)C[C@H](NC(=O)CNC(=O)[C@H](C)NC(=O)[C@@H](N)CCCNC(=N)N)C(=O)N[C@@H](CCC(N)=O)C(=O)N[C@@H](Cc1ccccc1)C(=O)N1CCC[C@H]1C(=O)N[C@H](C(=O)NCC(=O)N[C@@H](CCCNC(=N)N)C(=O)N[C@@H](CC(C)C)C(=O)N[C@@H](CC(C)C)C(=O)N[C@@H](CCCNC(=N)N)C(=O)N[C@@H](CCCNC(=N)N)C(=O)N[C@@H](CC(C)C)C(=O)N[C@@H](CC(C)C)C(=O)N[C@@H](CCCNC(=N)N)C(=O)N[C@@H](CCCNC(=N)N)C(=O)N[C@@H](CC(C)C)C(=O)N[C@@H](CC(C)C)C(=O)N[C@@H](CCCNC(=N)N)C(=O)O)C(C)C [Buforin llb, reference compound] (H-RAGLQFPVGRLLRRLLRRLLR-OH; N-terminus and C-terminus assumed)
